In US8471005B2 (Cephalon, Inc., priority 2008, dated 2013):
Where two headings read alike, the source gives them in different places.

Tests used:
ALK = molecular target: T1, ALK (Homo sapiens, UniProt Q9UM73); assay: ALK Kinase Assay (ELISA/TRF, PLC-γ substrate); assay type: biochemical; settings: read-out: ALK Potency
T1 construct: host or cells: baculovirus expression system
How it was run: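 First, plates are coated with substrate (phospholipase C-γ, 10 μg/mL, TBS). Next, 30 ng/ml ALK initiates phosphorylation for 15 min at 37° C. Then Eu-N1 PT66 antibody is added for detection, and a nonlinear dose-response fit of percent inhibition yields IC50.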

JAK2 = molecular target: T2, JAK2 (Homo sapiens, UniProt O60674); assay: Recombinant Human JAK2 Kinase Assay (TRF); assay type: biochemical; settings: read-out: JAK2 Potency
T2 construct: host or cells: baculovirus expression system
T2 sequence (O60674 whole entry): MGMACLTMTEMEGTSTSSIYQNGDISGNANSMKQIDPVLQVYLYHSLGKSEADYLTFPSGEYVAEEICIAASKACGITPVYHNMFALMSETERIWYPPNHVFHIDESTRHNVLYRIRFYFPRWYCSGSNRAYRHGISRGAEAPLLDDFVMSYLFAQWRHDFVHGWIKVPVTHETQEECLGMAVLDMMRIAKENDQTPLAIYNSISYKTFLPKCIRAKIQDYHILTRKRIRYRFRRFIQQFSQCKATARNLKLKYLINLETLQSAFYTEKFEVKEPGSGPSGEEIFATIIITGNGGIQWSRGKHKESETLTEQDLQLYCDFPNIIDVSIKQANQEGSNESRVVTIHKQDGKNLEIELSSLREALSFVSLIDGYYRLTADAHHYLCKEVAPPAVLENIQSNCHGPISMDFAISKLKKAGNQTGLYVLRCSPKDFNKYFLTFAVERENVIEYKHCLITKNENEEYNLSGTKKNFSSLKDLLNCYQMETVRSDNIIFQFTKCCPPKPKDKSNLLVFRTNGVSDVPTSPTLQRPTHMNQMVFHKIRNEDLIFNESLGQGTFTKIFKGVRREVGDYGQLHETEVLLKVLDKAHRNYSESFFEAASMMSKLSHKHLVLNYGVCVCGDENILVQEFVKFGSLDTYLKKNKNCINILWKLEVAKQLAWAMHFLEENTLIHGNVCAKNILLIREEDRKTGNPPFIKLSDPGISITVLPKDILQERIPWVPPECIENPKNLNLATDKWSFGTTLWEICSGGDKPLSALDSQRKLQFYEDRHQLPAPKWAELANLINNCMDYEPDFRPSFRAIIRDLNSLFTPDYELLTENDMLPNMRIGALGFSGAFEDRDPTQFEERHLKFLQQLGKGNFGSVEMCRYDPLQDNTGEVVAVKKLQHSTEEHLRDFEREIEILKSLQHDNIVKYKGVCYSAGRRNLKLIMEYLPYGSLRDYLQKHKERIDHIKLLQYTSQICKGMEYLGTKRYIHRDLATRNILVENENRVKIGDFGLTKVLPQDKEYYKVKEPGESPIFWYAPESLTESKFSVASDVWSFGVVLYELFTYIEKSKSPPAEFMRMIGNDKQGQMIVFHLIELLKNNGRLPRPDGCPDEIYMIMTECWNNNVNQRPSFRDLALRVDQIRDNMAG
How it was run: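 Baculovirus-expressed JAK2 (15 ng/ml) phosphorylated a biotinylated 15-mer peptide captured on Neutravidin-coated plates, in 20 mM HEPES pH 7.2 with 0.2 μM ATP, 1 mM MnCl2, 0.1% BSA and 2.5% DMSO. Reaction ran 20 min at room temperature; phosphopeptide was detected by time-resolved fluorescence with Eu-N1-labelled PY100 antibody.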

[1] = ALK kinase inhibition, 1 μM ATP
[2] = JAK2 kinase inhibition, 0.2 μM ATP

T1 sequence (Q9UM73 19-1620): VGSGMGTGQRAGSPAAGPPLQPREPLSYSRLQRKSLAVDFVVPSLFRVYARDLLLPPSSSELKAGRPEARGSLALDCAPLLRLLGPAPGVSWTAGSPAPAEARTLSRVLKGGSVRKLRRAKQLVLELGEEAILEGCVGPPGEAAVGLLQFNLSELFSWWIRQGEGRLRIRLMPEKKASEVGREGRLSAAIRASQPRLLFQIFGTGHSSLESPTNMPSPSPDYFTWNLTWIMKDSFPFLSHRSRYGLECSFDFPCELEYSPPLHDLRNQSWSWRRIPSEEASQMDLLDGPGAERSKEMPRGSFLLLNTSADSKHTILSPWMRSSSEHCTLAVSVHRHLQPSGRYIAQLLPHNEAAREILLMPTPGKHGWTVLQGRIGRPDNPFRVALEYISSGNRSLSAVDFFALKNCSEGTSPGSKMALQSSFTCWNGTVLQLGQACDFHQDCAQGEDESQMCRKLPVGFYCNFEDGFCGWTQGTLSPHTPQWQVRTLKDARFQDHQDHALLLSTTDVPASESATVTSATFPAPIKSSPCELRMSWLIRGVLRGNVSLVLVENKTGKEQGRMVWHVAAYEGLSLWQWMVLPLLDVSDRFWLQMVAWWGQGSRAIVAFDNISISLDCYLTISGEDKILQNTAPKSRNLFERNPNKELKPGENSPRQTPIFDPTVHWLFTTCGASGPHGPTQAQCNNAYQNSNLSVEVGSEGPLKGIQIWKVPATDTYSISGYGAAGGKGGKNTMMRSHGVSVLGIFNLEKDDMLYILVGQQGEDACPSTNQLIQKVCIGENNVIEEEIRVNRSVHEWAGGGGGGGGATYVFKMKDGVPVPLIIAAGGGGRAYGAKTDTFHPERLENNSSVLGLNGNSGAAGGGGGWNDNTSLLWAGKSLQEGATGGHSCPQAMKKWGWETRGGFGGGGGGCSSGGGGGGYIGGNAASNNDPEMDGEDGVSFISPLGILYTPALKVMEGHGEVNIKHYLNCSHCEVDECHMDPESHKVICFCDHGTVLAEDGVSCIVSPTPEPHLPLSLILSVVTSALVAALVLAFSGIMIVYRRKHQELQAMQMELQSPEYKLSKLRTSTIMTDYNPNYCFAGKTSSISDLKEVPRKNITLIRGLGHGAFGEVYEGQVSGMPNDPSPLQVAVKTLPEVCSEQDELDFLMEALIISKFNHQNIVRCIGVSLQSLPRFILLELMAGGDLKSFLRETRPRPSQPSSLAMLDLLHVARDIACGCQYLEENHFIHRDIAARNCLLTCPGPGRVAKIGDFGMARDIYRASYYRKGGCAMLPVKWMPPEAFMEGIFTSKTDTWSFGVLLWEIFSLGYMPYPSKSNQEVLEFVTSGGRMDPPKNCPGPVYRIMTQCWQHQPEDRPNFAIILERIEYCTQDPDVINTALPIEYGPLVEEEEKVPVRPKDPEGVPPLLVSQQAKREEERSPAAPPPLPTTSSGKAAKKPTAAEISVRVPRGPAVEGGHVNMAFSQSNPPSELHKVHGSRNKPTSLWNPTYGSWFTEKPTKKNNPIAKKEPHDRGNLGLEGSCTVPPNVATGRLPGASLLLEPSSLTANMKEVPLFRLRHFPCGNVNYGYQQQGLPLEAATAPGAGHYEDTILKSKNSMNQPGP

Row | Molecule | IC50 (ALK; ALK Kinase Inhibition) | IC50 (JAK2; JAK2 Kinase Inhibition) | IC50 (ALK; [1]) | IC50 (JAK2; [2])
1 | COCCOc1ncc2ccc(-c3cc(Cl)ccc3OC)n2n1 [Example 191, 7-(5-Chloro-2-methoxy-phenyl)-2-(2-methoxy-ethoxy)-pyrrolo[2,1-f][1,2,4]triazine] | > 10000 nM | < 100 nM |  | 
2 | CN(c1cccc(-c2ccc3cnc(Nc4ccc(N5CCOCC5)cc4)nn23)c1)S(C)(=O)=O [Example 420, N-Methyl-N-{3-[2-(4-morpholin-4-yl-phenylamino)-pyrrolo[2,1-f][1,2,4]triazin-7-yl]-phenyl}-methanesulfonamide] | 1000 to 10000 nM | < 100 nM |  | 
3 | COc1ccccc1-c1ccc2cnc(Nc3cccc(N4CCN(CCO)CC4)c3)nn12 [Example 178, 2-(4-{3-[7-(2-Methoxy-phenyl)-pyrrolo[2,1-f][1,2,4]triazin-2-ylamino]-phenyl}-piperazin-1-yl)-ethanol] | < 100 nM | < 100 nM |  | 
4 | Fc1ccc(Nc2ncc3ccc(-c4cccnc4)n3n2)cc1N1CCOCC1 [Example 391, (4-Fluoro-3-morpholin-4-yl-phenyl)-(7-pyridin-3-yl-pyrrolo[2,1-f][1,2,4]triazin-2-yl)-amine] | 1000 to 10000 nM | < 100 nM |  | 
5 | CNC(=O)CN1CCC(c2ccc(Nc3ncc4ccc(-c5ccccc5N(C)S(C)(=O)=O)n4n3)c(OC)c2)CC1 [Example 870, 2-[4-(4-{7-[2-(Methanesulfonyl-methyl-amino)-phenyl]-pyrrolo[2,1-f][1,2,4]triazin-2-ylamino}-3-methoxy-phenyl)-piperidin-1-yl]-N-methyl-acetamide] |  |  | < 100 nM | 100 to 1000 nM
6 | Cn1cnc2ccc(Nc3ncc4ccc(-c5cccc(S(=O)(=O)CC6CC6)c5)n4n3)cc21 [Example 1320, [7-(3-Cyclopropylmethanesulfonyl-phenyl)-pyrrolo[2,1-f][1,2,4]triazin-2-yl]-(3-methyl-3H-benzimidazol-5-yl)-amine] |  |  | 100 to 1000 nM | < 100 nM
7 | CS(=O)(=O)c1cccc(-c2ccc3cnc(N4CCC(Oc5cccc(N)c5)CC4)nn23)c1 [Example 563, 3-{1-[7-(3-Methanesulfonyl-phenyl)-pyrrolo[2,1-f][1,2,4]triazin-2-yl]-piperdin-4-yloxy}-phenylamine] |  |  | > 10000 nM | 1000 to 10000 nM
8 | CCN1CCCC(CC)(c2ccc(Nc3ncc4ccc(-c5ccccc5N(C)S(C)(=O)=O)n4n3)cc2)C1 (racemic) [Example 778, (±)-N-(2-{2-[4-(1,3-Diethyl-piperidin-3-yl)-phenylamino]-pyrrolo[2,1-f][1,2,4]triazin-7-yl}-phenyl)-N-methyl-methanesulfonamide] |  |  | < 100 nM | < 100 nM
9 | CC(=O)Nc1cccc(Nc2ncc3ccc(-c4cccc(N5CCCS5(=O)=O)c4)n3n2)c1 [Example 1508, N-[3-({7-[3-(1,1-Dioxido-1,2-thiazolidin-2-yl)phenyl]pyrrolo[2,1-f][1,2,4]triazin-2-yl}amino)phenyl]acetamide] | 1000 to 10000 nM | < 100 nM |  | 
10 | COc1ccc(-c2ccc3cnc(Nc4ccc5c(c4)CN(CC(N)=O)CC5)nn23)cn1 [Example 986, 2-{7-[7-(6-Methoxy-pyridin-3-yl)-pyrrolo[2,1-f][1,2,4]triazin-2-ylamino]-3,4-dihydro-1H-isoquinolin-2-yl}-acetamide] |  |  | 1000 to 10000 nM | < 100 nM
11 | COc1ccc(-c2ccc3cnc(Nc4ccc(C5CCN(CC(N)=O)CC5)cc4)nn23)cn1 [Example 1413, 2-(4-{4-[7-(6-Methoxy-pyridin-3-yl)-pyrrolo[2,1-f][1,2,4]triazin-2-ylamino]-phenyl}-piperidin-1-yl)-acetamide] | 100 to 1000 nM | < 100 nM |  | 
12 | COCC(C)Oc1ncc2ccc(-c3ccc(S(C)(=O)=O)cc3)n2n1 (stereo not shown) [Example 113, 7-(4-Methanesulfonyl-phenyl)-2-(2-methoxy-1-methyl-ethoxy)-pyrrolo[2,1-f][1,2,4]triazine] | > 10000 nM | 1000 to 10000 nM |  | 
13 | COc1cc(C2CCN(CC(O)CF)CC2)ccc1Nc1ncc2ccc(-c3ccccc3N(C)S(C)(=O)=O)n2n1 (racemic) [Example 826, (±)-N-[2-(2-{4-[1-(3-Fluoro-2-hydroxy-propyl)-piperidin-4-yl]-2-methoxy-phenylamino}-pyrrolo[2,1-f][1,2,4]triazin-7-yl)-phenyl]-N-methyl-methanesulfonamide] |  |  | < 100 nM | 100 to 1000 nM
14 | Cn1cnc(-c2ccc3cnc(Nc4ccc(N5CCOCC5)cc4)nn23)c1 [Example 1045, [7-(1-Methyl-1H-imidazol-4-yl)-pyrrolo[2,1-f][1,2,4]triazin-2-yl]-(4-morpholin-4-yl-phenyl)-amine] |  |  | 1000 to 10000 nM | < 100 nM
15 | COc1ccc(Nc2ncc3ccc(-c4cccc(NS(C)(=O)=O)c4)n3n2)cc1N1CCOCC1 [Example 395, N-{3-[2-(4-Methoxy-3-morpholin-4-yl-phenylamino)-pyrrolo[2,1-f][1,2,4]triazin-7-yl]-phenyl}-methanesulfonamide] | 100 to 1000 nM | < 100 nM |  | 
16 | CC(C)S(=O)(=O)c1ccc(-c2ccc3cnc(Nc4cccc(N5CCOCC5)c4)nn23)cc1 [Example 192, (3-Morpholin-4-yl-phenyl)-{7-[4-(propane-2-sulfonyl)-phenyl]-pyrrolo[2,1-f][1,2,4]triazin-2-yl}-amine] | 1000 to 10000 nM | < 100 nM |  | 

Results, then the molecule that gave them:

Row | IC50 (ALK; ALK Kinase Inhibition) | IC50 (JAK2; JAK2 Kinase Inhibition) | IC50 (ALK; [1]) | IC50 (JAK2; [2]) | Molecule
17 | 100 to 1000 nM | < 100 nM |  |  | CN1CCN(C(=O)c2ccc(Nc3ncc4ccc(-c5cccnc5)n4n3)cc2)CC1 [Example 321, (4-Methyl-piperazin-1-yl)-[4-(7-pyridin-3-yl-pyrrolo[2,1-f][1,2,4]triazin-2-ylamino)-phenyl]-methanone]
18 | < 100 nM | < 100 nM |  |  | C[C@H](O)CN1CCN(c2ccc(Nc3ncc4ccc(-c5cccc(S(=O)(=O)NC(C)(C)C)c5)n4n3)cc2)CC1 [Example 427, N-tert-Butyl-3-(2-{4-[4-((S)-2-hydroxy-propyl)-piperazin-1-yl]-phenylamino}-pyrrolo[2,1-f][1,2,4]triazin-7-yl)-benzenesulfonamide]
19 | 100 to 1000 nM | < 100 nM |  |  | C[C@@H](O)CN1CCN(c2cccc(Nc3ncc4ccc(-c5ccc(S(C)(=O)=O)cc5)n4n3)c2)CC1 [Example 217, (R)-1-(4-{3-[7-(4-Methanesulfonyl-phenyl)-pyrrolo[2,1-f][1,2,4]triazin-2-ylamino]-phenyl}-piperazin-1-yl)-propan-2-ol]
20 |  |  | < 100 nM | < 100 nM | CN(c1ccccc1-c1ccc2cnc(Nc3ccc4c(c3)CCCC(=O)N4)nn12)S(C)(=O)=O [Example 623, N-Methyl-N-{2-[2-(2-oxo-2,3,4,5-tetrahydro-1H-benzo[b]azepin-7-ylamino)-pyrrolo[2,1-f][1,2,4]triazin-7-yl]-phenyl}-methanesulfonamide]
21 |  |  | 100 to 1000 nM | < 100 nM | [7-(2-Methoxy-phenyl)-pyrrolo[2,1-f][1,2,4]triazin-2-yl]-(2-methyl-1,2,3,4-tetrahydro-isoquinolin-7-yl)-amine [Example 984]
22 | < 100 nM | 100 to 1000 nM |  |  | COc1cc(N2CCC(N3CCOCC3)CC2)ccc1Nc1ncc2ccc(-c3ccccc3N(C)S(C)(=O)=O)n2n1 [Example 1453, N-(2-{2-[2-Methoxy-4-(4-morpholin-4-yl-piperidin-1-yl)-phenylamino]-pyrrolo[2,1-f][1,2,4]triazin-7-yl}-phenyl)-N-methyl-methanesulfonamide]
23 | 100 to 1000 nM | < 100 nM |  |  | CN1CCN(c2ccc(Nc3ncc4ccc(-c5cccc(NS(=O)(=O)C6CC6)c5)n4n3)cc2)CC1 [Example 413, Cyclopropanesulfonic acid (3-{2-[4-(4-methyl-piperazin-1-yl)-phenylamino]-pyrrolo[2,1-f][1,2,4]triazin-7-yl}-phenyl)-amide]
24 |  |  | < 100 nM | 100 to 1000 nM | COc1cc(C2CCNCC2)ccc1Nc1ncc2c(C)cc(-c3ccccc3N(C)S(C)(=O)=O)n2n1 [Example 1263, N-{2-[2-(2-Methoxy-4-piperidin-4-yl-phenylamino)-5-methyl-pyrrolo[2,1-f][1,2,4]triazin-7-yl]-phenyl}-N-methyl-methanesulfonamide]
25 |  |  | 100 to 1000 nM | < 100 nM | COc1ccccc1-c1ccc2cnc(Nc3ccc4c(c3)NC(=O)C4(C)C)nn12 [Example 656, 6-[7-(2-Methoxy-phenyl)-pyrrolo[2,1-f][1,2,4]triazin-2-ylamino]-3,3-dimethyl-1,3-dihydro-indol-2-one]
26 | < 100 nM | < 100 nM |  |  | CCOc1ccccc1-c1ccc2cnc(Nc3ccc(N4CCN(C)CC4)cc3)nn12 [Example 109, [7-(2-Ethoxy-phenyl)-pyrrolo[2,1-f][1,2,4]triazin-2-yl]-[4-(4-methyl-piperazin-1-yl)-phenyl]-amine]
27 |  |  | > 10000 nM | < 100 nM | CN(C)S(=O)(=O)c1ccc(Nc2ncc3ccc(-c4cccc(S(=O)(=O)NC(C)(C)C)c4)n3n2)cc1 [Example 593, 4-({7-[3-(tert-butylsulfamoyl)phenyl]pyrrolo[2,1-f][1,2,4]triazin-2-yl}amino)-N,N-dimethylbenzenesulfonamide]
28 | > 10000 nM | 1000 to 10000 nM |  |  | COc1ccc(CNc2ncc3ccc(-c4ccccc4OC)n3n2)cc1OC [Example 442, (3,4-Dimethoxy-benzyl)-[7-(2-methoxy-phenyl)-pyrrolo[2,1-f][1,2,4]triazin-2-yl]-amine]
29 |  |  | 1000 to 10000 nM | < 100 nM | CN(c1ccccc1-c1ccc2cnc(Nc3ccc(=O)[nH]c3)nn12)S(C)(=O)=O [Example 596, N-Methyl-N-{2-[2-(6-oxo-1,6-dihydro-pyridin-3-ylamino)-pyrrolo[2,1-f][1,2,4]triazin-7-yl]-phenyl}-methanesulfonamide]
